# Tested on: mouse kidney
# Experiment: Folic acid nephropathy model, High dose vs Low dose FA (histology, qRT-PCR)
# Details: High dose group compared to Low dose group, day 14
# Protocol: Mice were sacrificed at 1, 2, 3, 7 and 14 days following administration. […] All mice were sacrificed at 14 days.
# Formalin fixed, paraffin embedded kidney sections were Masson Trichrome's stained and evaluated by a renal pathologist under a light microscope in blinded fashion relative to sample group. Percent area of fibrosis relative to the total section area was evaluated. Sirius red staining of the […] sections was performed at the Michigan State University Investigative Histopathology Laboratory.
# Total RNA was extracted from frozen kidney tissue using TRIzol reagent (Invitrogen). Following RNA concentration measurement by NanoDrop spectrophotometer (Thermo Fischer Scientific), 1 μg RNA was used for cDNA preparation using QuantiTect Reverse Transcription Kit from Qiagen (Valencia, Calif.). qRT-PCR using QuantiFast SYBR Green PCR Kit (Qiagen) was performed in 384-well plates on an Applied Biosystems 7900HT Fast Real-Time PCR System instrument with the following temperature profile: 3 min enzyme activation at 95° C. followed by 40 cycles of 95° C. for 10 s, and 55° C. for 30 s. Primer pairs used are listed in Supplementary Table 1. Gapdh was used as reference gene for normalization. The SDS 2.4 software (Applied Biosystems) was used to compute the threshold cycle (Cq) and the relative expression for an mRNA was assessed using the 2^−ΔCq method.
smiles,measurement,value
"Nc1nc2ncc(CNc3ccc(C(=O)N[C@@H](CCC(=O)O)C(=O)O)cc3)nc2c(=O)[nH]1 [FA, folic acid]",candidate fibrosis markers mRNA levels,Nine out of ten candidate fibrosis markers showed significantly (p<0.05) higher mRNA levels

# Reference: patent publication US10119168B2, “Methods for the treatment of kidney fibrosis” (priority 2014, dated 2018)
